IC50 and inhibition data for ten compounds are collected here from patent US9902725B2, “Heterocyclic derivatives as RORgamma modulators” (GENFIT, priority 2014, dated 2018).

In general, IC50 refers to the concentration needed to halve the response being measured. What is called inhibition is how much of the control response was suppressed.

SMILES strings stand for the structures.

The target in data set [1] is T1, human RORγt (Homo sapiens, UniProt P51449).
T1 sequence (P51449 1-497 isoform P51449-2): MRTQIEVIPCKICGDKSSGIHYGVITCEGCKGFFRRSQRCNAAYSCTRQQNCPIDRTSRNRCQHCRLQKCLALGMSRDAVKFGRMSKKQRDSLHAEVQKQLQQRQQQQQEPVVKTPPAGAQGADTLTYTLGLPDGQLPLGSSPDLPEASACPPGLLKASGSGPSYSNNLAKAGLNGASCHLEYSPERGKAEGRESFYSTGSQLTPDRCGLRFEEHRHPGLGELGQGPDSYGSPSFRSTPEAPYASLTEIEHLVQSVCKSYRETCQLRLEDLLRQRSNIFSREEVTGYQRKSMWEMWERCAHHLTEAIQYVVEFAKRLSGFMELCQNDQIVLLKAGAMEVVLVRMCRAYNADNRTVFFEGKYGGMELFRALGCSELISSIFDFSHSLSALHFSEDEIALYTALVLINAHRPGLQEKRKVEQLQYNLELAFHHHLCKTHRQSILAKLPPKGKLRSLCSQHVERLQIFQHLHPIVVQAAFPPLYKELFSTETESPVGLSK
In words: IL-17 secretion from EL4 murine lymphoma overexpressing human RORγt. The class given is cell-based. Also noted: expressed in transfected cells; host or cells: EL-4 murine lymphoma. Conditions: IL-17 secretion inhibition, PMA and ionomycin stimulation, 24 h. In short, it runs like this: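 EL4 murine lymphoma cells electroporated with hRORγt plasmid, seeded 150000 cells/well, pretreated with compound, then stimulated with PMA (10 ng/mL) and ionomycin (1 μM final) with compound for a further 24 h at 37° C. IL-17 in supernatant measured by HTRF or ELISA.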

Data set [2] deals with CYP2C19 (Homo sapiens, UniProt P33261). In words: CYP inhibition CYP2C19 (CEREP). Format: in vitro ADME. To be noted: human, recombinant CYP2C19, probe 3-cyano-7-ethoxycoumarin, single concentration (typically 10 μM), read-out: CYP 2C19 (% inhibition of Control). As for the experimental part: All the assays were conducted at CEREP (CEREP, France and USA). Metabolic compound stability was tested in human (CEREP, Ref 607) and mouse (CEREP, Ref: 806) microsomes. Inhibition of human drug-metabolizing cytochromes P450 was tested on the five most commonly responsible enzymes of metabolism of xenobiotics, CYP1A2 (CEREP, Ref 389), CYP2C9 (CEREP, Ref 412), CYP2C19 (CEREP, Ref 390), CYP2D6 (CEREP, Ref 1338) and CYP3A4 (CEREP, Ref 391).
Briefly, CEREP's CYP inhibition assay uses traditional probe substrates, which are specific to individual CYP isoforms. 3-cyano-7-ethoxycoumarin is mainly catalyzed by CYP1A2 and CYP2C19, 3-[2-(N,N-diethyl-N-methylammonium)ethyl]-7-methoxy-4-methylcoumarin for CYP2C9 and CYP2D6 and finally, 7-benzyloxy-4-trifluoromethylcoumarin is pathway catalyzed predominantly by CYP3A4. The inhibition assays were performed with human recombinant CYP isoforms preparations. HPLC MS/MS methods are used to detect metabolites in these assays. Compounds were tested at single concentrations (typically 10 μM) and data were expressed as percent of control inhibition.

CYP2C19, sequence (P33261 whole entry, canonical isoform): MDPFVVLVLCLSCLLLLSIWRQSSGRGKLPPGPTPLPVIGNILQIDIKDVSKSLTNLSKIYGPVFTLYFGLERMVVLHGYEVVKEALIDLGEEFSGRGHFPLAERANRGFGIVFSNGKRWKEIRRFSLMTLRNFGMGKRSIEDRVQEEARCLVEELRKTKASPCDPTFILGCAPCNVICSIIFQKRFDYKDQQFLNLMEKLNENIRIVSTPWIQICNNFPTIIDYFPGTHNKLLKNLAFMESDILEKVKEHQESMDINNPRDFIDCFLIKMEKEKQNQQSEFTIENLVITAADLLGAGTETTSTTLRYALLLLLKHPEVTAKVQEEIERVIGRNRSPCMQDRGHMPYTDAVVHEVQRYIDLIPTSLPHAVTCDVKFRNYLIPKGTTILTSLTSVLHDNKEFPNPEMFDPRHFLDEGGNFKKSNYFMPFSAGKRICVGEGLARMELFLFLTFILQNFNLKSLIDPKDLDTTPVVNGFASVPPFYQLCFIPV

On to `O=C(O)CCc1c[nH]c2ccc(CC(=O)NC(c3ccccc3)c3ccccc3N3CCCCC3)cc12` (centres unmarked) [Cpd. 1, 3-{5-[({phenyl[2-(piperidin-1-yl)phenyl]methyl}carbamoyl)methyl]-1H-indol-3-yl}propanoic acid], for which, in data set [1], the IC50 lay in the range of 1000 to 10000 nM. In addition, in data set [2], the inhibition at 10 µM is 13%.
Compound `O=C(O)CCc1c[nH]c2ccc(CC(=O)NC(c3cccc(F)c3)c3ccccc3N3CCCCC3)cc12` (centres unmarked) [Cpd. 3, 3-[5-({[(3-fluorophenyl)[2-(piperidin-1-yl)phenyl]methyl]carbamoyl}methyl)-1H-indol-3-yl]propanoic acid] registered an IC50 in data set [1] of 1000 to 10000 nM. Moreover, the inhibition at 10 µM in data set [2] was determined as 58.8%.
The like results for `Cc1ccc(C(NC(=O)Cc2ccc3[nH]cc(CCC(=O)O)c3c2)c2ccccc2)c(N2CCCC2)c1` (centres unmarked) [Cpd. 5, 3-{5-[({[4-methyl-2-(pyrrolidin-1-yl)phenyl](phenyl)methyl}carbamoyl)methyl]-1H-indol-3-yl}propanoic acid] were, in that order, less than 1000 nM and 25%.
`CC(C)CC(NC(=O)Cc1ccc2[nH]cc(CCC(=O)O)c2c1)c1ccccc1N1CCCCC1` (centres unmarked) [Cpd. 29, 3-{5-[({3-methyl-1-[2-(piperidin-1-yl)phenyl]butyl}carbamoyl)methyl]-1H-indol-3-yl}propanoic acid] returned an IC50 in data set [1] of 1000 to 10000 nM. The inhibition at 10 µM in data set [2] stood at 14.1%.
In turn, `O=C(O)CCc1c[nH]c2ccc(CC(=O)NC(c3ccccc3)c3ccc(C(F)(F)F)cc3N3CCCC3)cc12` (centres unmarked) [Cpd. 48, 3-{5-[({phenyl[2-(pyrrolidin-1-yl)-4-(trifluoromethyl)phenyl]methyl}carbamoyl)methyl]-1H-indol-3-yl}propanoic acid] had an IC50 in data set [1] of 1000 to 10000 nM. Further, the inhibition at 10 µM in data set [2] turned out to be 35%.
The compound `O=C(O)CCc1c[nH]c2ccc(CC(=O)NC(c3ccccc3)c3ccc(Br)cc3N3CCCC3)cc12` (centres unmarked) [Cpd. 50, 3-{5-[({[4-bromo-2-(pyrrolidin-1-yl)phenyl](phenyl)methyl}carbamoyl)methyl]-1H-indol-3-yl}propanoic acid] registered an IC50 in data set [1] of less than 1000 nM. The inhibition at 10 µM in data set [2] was determined as 32.3%.
For `Cc1ccc(C(NC(=O)Cc2ccc3[nH]cc(CCC(=O)O)c3c2)c2ccccc2)c(N2CCCCC2)c1` (centres unmarked) [Cpd. 77, 3-{5-[({[4-methyl-2-(piperidin-1-yl)phenyl](phenyl)methyl}carbamoyl)methyl]-1H-indol-3-yl}propanoic acid], in data set [1], the IC50 is less than 1000 nM. Also, the inhibition at 10 µM in data set [2] turned out to be 28.1%.
In the case of `COc1ccc(C(NC(=O)Cc2ccc3[nH]cc(CCC(=O)O)c3c2)c2ccccc2)c(N2CCCCC2)c1` (centres unmarked) [Cpd. 111, 3-{5-[({[4-methoxy-2-(piperidin-1-yl)phenyl](phenyl)methyl}carbamoyl)methyl]-1H-indol-3-yl}propanoic acid], the IC50 in data set [1] lay in the range of 1000 to 10000 nM. For the same compound, in data set [2], the inhibition at 10 µM came to 29.4%.
Take `Cc1ccc(C(NC(=O)Cc2ccc3[nH]cc(CCC(=O)O)c3c2)c2ccccc2)c(N(C)C)c1` (centres unmarked) [Cpd. 192, 3-{5-[({[2-(dimethylamino)-4-methylphenyl](phenyl)methyl}carbamoyl)methyl]-1H-indol-3-yl}propanoic acid]: the IC50 in data set [1] is less than 1000 nM. Moreover, in data set [2], the inhibition at 10 µM was 31.2%.
The like results for `O=C(O)CCCc1c[nH]c2ccc(CC(=O)NC(c3ccccc3)c3ccccc3N3CCCCC3)cc12` (centres unmarked) [Cpd. 212, 4-{5-[({phenyl[2-(piperidin-1-yl)phenyl]methyl}carbamoyl)methyl]-1H-indol-3-yl}butanoic acid] were, in that order, 1000 to 10000 nM and 32.2%.
